For one assay, the system named is Candida albicans. Nature of the assay: Concentration that substantially inhibit growth of Candida albicans. The assay is classed as functional, organism-based.
A further assay deals with Cryptococcus neoformans. Nature of the assay: Concentration that substantially inhibit the growth of Cryptococcus neoformans. In kind it is functional.

≈ marks a conversion by molar mass, not a printed value. Where a SMILES comes first, the peptide text is derived from it. [ ]: non-standard residue; d: D form.

The compound `CC[C@H](C)[C@H](NC(=O)[C@@H](Cc1ccccc1)NC(=O)[C@@H](Cc1c[nH]c2ccccc12)NC(=O)[C@@H](N)CCCN=C(N)N)C(=O)N[C@H](Cc1ccccc1)C(=O)N[C@@H](Cc1c[nH]cn1)C(=O)N[C@@H](CCCCN)C(=O)N[C@@H](CCCN=C(N)N)C(=O)N[C@@H](C)C(N)=O` yielded an IC50 in the assay on Candida albicans of 5.99 µM. In the assay on Cryptococcus neoformans, this compound returned an MIC of 4.96 µM (≈ 6.25 µg/mL).
In turn, `CC[C@H](C)[C@H](NC(=O)[C@@H](Cc1ccccc1)NC(=O)[C@@H](Cc1c[nH]c2ccccc12)NC(=O)[C@@H](N)CCCN=C(N)N)C(=O)N[C@H](Cc1ccccc1)C(=O)N[C@@H](Cc1c[nH]cn1)C(=O)N[C@@H](CCCCN)C(=O)N[C@@H](CCCCN)C(=O)N[C@@H](CCSC)C(N)=O` returned an IC50 in the assay with Candida albicans of 2.62 µM. In the assay on Cryptococcus neoformans, this compound returned an MIC of 2.37 µM (≈ 3.06 µg/mL).
Consider `CC[C@H](C)[C@H](NC(=O)[C@@H](Cc1ccccc1)NC(=O)[C@@H](Cc1c[nH]c2ccccc12)NC(=O)[C@@H](N)CCCN=C(N)N)C(=O)N[C@H](Cc1ccccc1)C(=O)N[C@@H](Cc1c[nH]cn1)C(=O)N[C@@H](CCCCN)C(=O)N[C@@H](CCCN=C(N)N)C(=O)NCC(N)=O`, for which, in the assay with Candida albicans, the IC50 is 4.48 µM. This compound also returned an MIC against Cryptococcus neoformans of 2.5 µM (≈ 3.11 µg/mL).
The compound `CC[C@H](C)[C@H](NC(=O)[C@@H](Cc1ccccc1)NC(=O)[C@@H](Cc1c[nH]c2ccccc12)NC(=O)[C@@H](N)CCCN=C(N)N)C(=O)N[C@H](Cc1ccccc1)C(=O)N[C@@H](Cc1c[nH]cn1)C(=O)N[C@@H](CCCCN)C(=O)N[C@@H](CCCN=C(N)N)C(=O)N1CCC[C@H]1C(N)=O` had an IC50 with Candida albicans of 4.7 µM. In the assay on Cryptococcus neoformans, this compound yielded an MIC of 2.42 µM (≈ 3.11 µg/mL).
The corresponding values for `CC[C@H](C)[C@H](NC(=O)[C@@H](Cc1ccccc1)NC(=O)[C@@H](Cc1c[nH]c2ccccc12)NC(=O)[C@@H](N)CCCN=C(N)N)C(=O)N[C@H](Cc1ccccc1)C(=O)N[C@@H](Cc1c[nH]cn1)C(=O)N[C@@H](CCCCN)C(=O)N[C@@H](CCCN=C(N)N)C(=O)N[C@@H](Cc1c[nH]cn1)C(N)=O` are 4.11 µM and 2.35 µM (≈ 3.12 µg/mL).
In turn, `CC[C@H](C)[C@H](NC(=O)[C@@H](Cc1ccccc1)NC(=O)[C@@H](Cc1c[nH]c2ccccc12)NC(=O)[C@@H](N)CCCN=C(N)N)C(=O)N[C@H](Cc1ccccc1)C(=O)N[C@@H](Cc1c[nH]cn1)C(=O)N[C@@H](CCCCN)C(=O)N[C@@H](CCCCN)C(=O)N[C@@H](CC(=O)O)C(N)=O` [listing 1 of 2 here] registered an MIC against Cryptococcus neoformans of 4.8 µM (≈ 6.12 µg/mL).
`CC[C@H](C)[C@H](NC(=O)[C@@H](Cc1ccccc1)NC(=O)[C@@H](Cc1c[nH]c2ccccc12)NC(=O)[C@@H](N)CCCN=C(N)N)C(=O)N[C@H](Cc1ccccc1)C(=O)N[C@@H](Cc1c[nH]cn1)C(=O)N[C@@H](CCCCN)C(=O)N[C@@H](CCCCN)C(=O)N[C@@H](C)C(N)=O` [listing 1 of 2 here] gave a half-inhibitory concentration (IC50) in the assay with Candida albicans of 3.17 µM.
Regarding `CC[C@H](C)[C@H](NC(=O)[C@@H](Cc1ccccc1)NC(=O)[C@@H](Cc1c[nH]c2ccccc12)NC(=O)[C@@H](N)CCCN=C(N)N)C(=O)N[C@H](Cc1ccccc1)C(=O)N[C@@H](Cc1c[nH]cn1)C(=O)N[C@@H](CCCCN)C(=O)N[C@@H](CCCCN)C(=O)N[C@@H](CO)C(N)=O`, the IC50 in the assay with Candida albicans was 1.77 µM. In the assay with Cryptococcus neoformans, this compound returned an MIC of 2.45 µM (≈ 3.06 µg/mL).
In the assay on Cryptococcus neoformans, `CC[C@H](C)[C@H](NC(=O)[C@@H](Cc1ccccc1)NC(=O)[C@@H](Cc1c[nH]c2ccccc12)NC(=O)[C@@H](N)CCCN=C(N)N)C(=O)N[C@H](Cc1ccccc1)C(=O)N[C@@H](Cc1c[nH]cn1)C(=O)N[C@@H](CCCCN)C(=O)N[C@@H](CCCCN)C(=O)N[C@@H](Cc1c[nH]cn1)C(N)=O` [listing 1 of 2 here] returned an MIC of 2.36 µM (≈ 3.06 µg/mL).
With `CC[C@H](C)[C@H](NC(=O)[C@@H](Cc1ccccc1)NC(=O)[C@@H](Cc1c[nH]c2ccccc12)NC(=O)[C@@H](N)CCCN=C(N)N)C(=O)N[C@H](Cc1ccccc1)C(=O)N[C@@H](Cc1c[nH]cn1)C(=O)N[C@@H](CCCCN)C(=O)N[C@@H](CCCCN)C(=O)N[C@@H](C)C(N)=O` [listing 2 of 2 here], the MIC in the assay on Cryptococcus neoformans is 2.48 µM (≈ 3.05 µg/mL).
`NCCCC[C@H](NC(=O)[C@@H](Cc1ccccc1)NC(=O)[C@H](Cc1ccccc1)NC(=O)[C@@H](Cc1ccccc1)NC(=O)[C@@H](Cc1c[nH]c2ccccc12)NC(=O)[C@@H](N)Cc1c[nH]cn1)C(N)=O` (H-H[dW][dF]F[dF]K-NH2): the MIC with Cryptococcus neoformans is 6.81 µM (≈ 6.2 µg/mL).
In the case of `CC[C@H](C)[C@H](NC(=O)[C@@H](Cc1ccccc1)NC(=O)[C@@H](Cc1c[nH]c2ccccc12)NC(=O)[C@@H](N)CCCN=C(N)N)C(=O)N[C@H](Cc1ccccc1)C(=O)N[C@@H](Cc1c[nH]cn1)C(=O)N[C@@H](CCCCN)C(=O)N[C@@H](CCCCN)C(=O)N[C@@H](CC(=O)O)C(N)=O` [listing 2 of 2 here], in the assay with Candida albicans, half-maximal inhibition (IC50) required 3.52 µM.
On the same count and under the same terms, as for `CC[C@H](C)[C@H](NC(=O)[C@@H](Cc1ccccc1)NC(=O)[C@@H](Cc1c[nH]c2ccccc12)NC(=O)[C@@H](N)CCCN=C(N)N)C(=O)N[C@H](Cc1ccccc1)C(=O)N[C@@H](Cc1c[nH]cn1)C(=O)N[C@@H](CCCCN)C(=O)N[C@@H](CCCCN)C(=O)N[C@@H](Cc1ccccc1)C(N)=O` [listing 1 of 2 here], the figure is more than 7 µM.
Take `CC[C@H](C)[C@H](NC(=O)[C@@H](Cc1ccccc1)NC(=O)[C@@H](Cc1c[nH]c2ccccc12)NC(=O)[C@@H](N)CCCN=C(N)N)C(=O)N[C@H](Cc1ccccc1)C(=O)N[C@@H](Cc1c[nH]cn1)C(=O)N[C@@H](CCCCN)C(=O)N[C@@H](CCCCN)C(=O)NCC(N)=O` [listing 1 of 2 here]: in the assay on Cryptococcus neoformans, the MIC came to 2.51 µM (≈ 3.06 µg/mL).
The same measure, in the same setting: with `CC[C@H](C)[C@H](NC(=O)[C@@H](Cc1ccccc1)NC(=O)[C@@H](Cc1c[nH]c2ccccc12)NC(=O)[C@@H](N)CCCN=C(N)N)C(=O)N[C@H](Cc1ccccc1)C(=O)N[C@@H](Cc1c[nH]cn1)C(=O)N[C@@H](CCCCN)C(=O)N[C@@H](CCCCN)C(=O)N[C@@H](CCC(=O)O)C(N)=O` [listing 1 of 2 here] the figure was 2.37 µM (≈ 3.06 µg/mL); with `CC[C@H](C)[C@H](NC(=O)[C@@H](Cc1ccccc1)NC(=O)[C@@H](Cc1c[nH]c2ccccc12)NC(=O)[C@@H](N)CCCN=C(N)N)C(=O)N[C@H](Cc1ccccc1)C(=O)N[C@@H](Cc1c[nH]cn1)C(N)=O` (H-R[dW][dF]I[dF]H-NH2), 6.86 µM (≈ 6.2 µg/mL).
In the case of `CC[C@H](C)[C@H](NC(=O)[C@@H](Cc1ccccc1)NC(=O)[C@@H](Cc1c[nH]c2ccccc12)NC(=O)[C@@H](N)CCCN=C(N)N)C(=O)N[C@H](Cc1ccccc1)C(=O)N[C@@H](Cc1c[nH]cn1)C(=O)N[C@@H](CCCCN)C(=O)N[C@@H](CCCCN)C(=O)NCC(N)=O` [listing 2 of 2 here], in the assay with Candida albicans, the IC50 came out at 2.77 µM.
In turn, `CC[C@H](C)[C@H](NC(=O)[C@@H](Cc1ccccc1)NC(=O)[C@@H](Cc1c[nH]c2ccccc12)NC(=O)[C@@H](N)CCCN=C(N)N)C(=O)N[C@H](Cc1ccccc1)C(=O)N[C@@H](Cc1c[nH]cn1)C(=O)N[C@@H](CCCCN)C(=O)N[C@@H](CCCCN)C(=O)N[C@@H](Cc1c[nH]cn1)C(N)=O` [listing 2 of 2 here] gave an IC50 in the assay on Candida albicans of 1.9 µM.
`CC[C@H](C)[C@H](NC(=O)[C@@H](Cc1ccccc1)NC(=O)[C@@H](Cc1c[nH]c2ccccc12)NC(=O)[C@@H](N)CCCN=C(N)N)C(=O)N[C@H](Cc1ccccc1)C(=O)N[C@@H](Cc1c[nH]cn1)C(=O)N[C@@H](CCCCN)C(=O)N[C@@H](CCCCN)C(=O)N[C@@H](Cc1ccccc1)C(N)=O` [listing 2 of 2 here] yielded an MIC in the assay with Cryptococcus neoformans of more than 7 µM.
Take `CC[C@H](C)[C@H](NC(=O)[C@@H](Cc1ccccc1)NC(=O)[C@@H](Cc1c[nH]c2ccccc12)NC(=O)[C@@H](N)CCCN=C(N)N)C(=O)N[C@H](Cc1ccccc1)C(=O)N[C@@H](Cc1c[nH]cn1)C(=O)N[C@@H](CCCCN)C(=O)N[C@@H](CCCCN)C(=O)N[C@@H](CCC(=O)O)C(N)=O` [listing 2 of 2 here]: inhibition in the assay with Candida albicans was half-maximal at 3.57 µM (IC50).

By IC50 is commonly meant the point on the concentration scale where inhibition reaches its midpoint. What is called MIC is the smallest concentration in the dilution series that meets the test's criterion for growth inhibition.

Values taken from ChEMBL document CHEMBL1135126, “Identification of novel antifungal nonapeptides through the screening of combinatorial peptide libraries based on a hexapeptide motif” (Bioorg Med Chem Lett, 2002).
